Measured values taken from PubChem BioAssay (NCI).
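1) Cells in 96-well plates. 2) Compound, 48 h, 5 concentrations. 3) Linear interpolation between surrounding doses. 4) Unreached endpoint = highest concentration. At the GI50, growth is halved. TGI denotes the concentration required for complete inhibition of growth.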

Legend:
Experiment in all cases: growth of human tumour cells (NCI), 48 h
DU-145 prostate = tested on: DU-145 prostate
HCT-15 colon = tested on: HCT-15 colon
NCI-H460 lung = tested on: NCI-H460 lung
SF-539 CNS = tested on: SF-539 CNS
SK-MEL-2 melanoma = tested on: SK-MEL-2 melanoma
SN12C renal = tested on: SN12C renal
SNB-75 CNS = tested on: SNB-75 CNS
SR leukemia = tested on: SR leukemia

Row | Structure (SMILES) | TGI (DU-145 prostate) [µM] | TGI (HCT-15 colon) [µM] | TGI (NCI-H460 lung) [µM] | TGI (SF-539 CNS) [µM] | TGI (SK-MEL-2 melanoma) [µM] | TGI (SN12C renal) [µM] | TGI (SNB-75 CNS) [µM] | GI50 (DU-145 prostate) [µM] | GI50 (HCT-15 colon) [µM] | GI50 (NCI-H460 lung) [µM] | GI50 (SF-539 CNS) [µM] | GI50 (SK-MEL-2 melanoma) [µM] | GI50 (SN12C renal) [µM] | GI50 (SNB-75 CNS) [µM] | GI50 (SR leukemia) [µM] | TGI (SR leukemia) [µM]
1 | NNC(=S)Nc1cccc(Cl)c1 | > 100 | > 100 | > 100 | > 100 | > 100 | > 100 | > 100 |  |  |  |  |  |  |  |  | 
2 | CC(C)CCC(=O)[C@@H](C)[C@H]1[C@@H](OC2OCC(O)C(O)C2NS(C)(=O)=O)C[C@H]2[C@@H]3CC=C4C[C@@H](O)CC[C@]4(C)[C@H]3CC[C@]12C (some centres undefined) | 20.4 | 9.44 | 4.86 | 1.11 | 2.27 | > 40 | 9.58 | 3.42 | 2.23 | 1.42 | 0.202 | 0.739 | 8.36 | 0.571 | 1.03 | 8.39
3 | COc1ccc2c(c1)C(=O)c1c-2n(CCCN)c(=O)c2cc(OC)c(OC)cc12 | 0.153 | 1.18 | > 100 | 1.29 |  | 1.51 | 2.55 | < 0.01 | 0.229 | < 0.01 | 0.164 | 2.55 | 0.112 | 1.16 |  | 
4 | O=S(=O)(Nc1ccc2ccccc2c1)c1ccc(-c2cnc(C3CC3)o2)cc1 | 20.4 | 19.2 | 10.9 | 3.92 | 20.6 | 17.3 | 6.07 | 2.96 | 0.557 | 0.56 | 1.17 | 1.43 | 3.69 | 0.616 | 0.377 | > 100
5 | CC1=NN(C(=O)c2ccncc2)C(=O)C1N=Nc1ccc2ccccc2c1 (centres undefined) | > 100 | > 100 | > 100 | > 100 | > 95.2 | > 100 | > 100 |  |  |  |  |  |  |  |  | > 31.7
6 | CC[C@]12C=CCN3CC[C@@]4(c5ccc(OC)cc5N(C)[C@H]4[C@@](O)(C(=O)OC)[C@@H]1OC(=O)CCC(=O)N[C@H](Cc1c[nH]c4ccccc14)C(=O)OC)[C@@H]32 | 20.3 | 16.7 | 32.8 | 7.06 | 37.3 | 23.9 | 14.1 | 4.44 | 3.51 | 14.8 | 2.63 | 17 | 3.68 | 2.23 | 3.55 | > 100
7 | CCCN1C(=O)/C(=C/c2ccc(O)cc2)SC1=Nc1ccc(OC)cc1 | 29.5 | 25.7 | 66.7 | 33.1 | > 100 | 34.5 | 46.1 | 10.3 | 12.6 | 17.6 | 16.2 | 37.1 | 16.8 | 17.8 | 10.4 | > 100
8 | N#Cc1c(N)nc(N2CCSCC2)c(C#N)c1-c1ccc(O)cc1 | > 100 | 54.1 | 29.5 | 39 | > 100 | 50.2 | 30.4 | 27.1 | 17.6 | 13.4 | 18 | 51 | 19.8 | 10.9 | 11.2 | 38.1
9 | C/C=C(/C)C(=O)OC1C=C(CO)C(=O)C(OC(=O)C(C)(O)C(C)Cl)C1C(C)C (centres undefined) | 2.4 | 2.36 | 8.62 | 2.62 | 4.29 | 2.11 |  | 1.13 | 0.772 | 2.28 | 1.28 | 2.06 | 0.731 |  | 0.255 | 2.16
10 | COC(=O)C1=C(C(=O)OC)C2OC1c1cc3ccccc3cc12 | 21.6 | 8.09 | 46.3 | 12.1 | 29.5 | 30.8 | 38.7 |  |  |  |  |  |  |  |  | 3.55
11 | Cc1cc(NNC(=O)c2ccccc2O)nc(Nc2nc3ccccc3o2)n1 | 18.3 | > 39.5 | 6.77 | 11.2 | 13.3 | 19.1 | 17.4 | 1.83 | 1.17 | 0.422 | 1.41 | 2.24 | 1.62 | 3.49 | 0.602 | 7.31
12 | O=C(Nc1cccc(Cl)c1)c1cc(N=Nc2ccc([N+](=O)[O-])cc2Cl)ccc1O | 8.72 | 5.85 | 7.92 | 8.61 | 4.04 | 8.87 | 20.5 | 1.43 | 1.89 | 2.74 | 2.41 | 1.81 | 2.86 | 2.65 | 1.6 | 4.29
13 | Cc1cn2c(/C=C3/C(=O)Nc4ccc(F)cc43)c(C)nc2s1 | 32.3 | > 50 | > 50 | 18.4 | > 50 | 27.4 | 15.6 | 9.58 | 2.73 | 2.4 | 7.29 | 8.76 | 8.56 | 3.76 | 1.67 | 5.14
14 | CC(O)CN1c2ccccc2Sc2ccc(Cl)cc21 (centres undefined) | > 10 | > 10 | > 10 | > 10 | > 10 | > 10 | > 10 |  |  |  |  |  |  |  |  | 
15 | COC(=O)C1=C(O)[C@H](C(=O)OC)[C@]2(O)[C@@H](C(=O)OC)[C@H]1C[C@@H](c1ccc(OC(=O)/C=C/c3ccco3)cc1)[C@@H]2C(=O)OC |  | 24 | > 100 |  |  | 52.3 |  |  | 6.22 | 33 |  |  | 22.4 |  |  | 
16 | CC(=O)C1CCC2C3CC=C4CC(SC(=N)N)CCC4(C)C3CCC12C (centres undefined) | 10.3 |  | 3.09 | 3.96 |  |  | 4.15 | 3.13 |  | 1.58 | 1.87 |  |  | 1.58 |  | 
17 | CSc1ccc(C2=NN(C(C)=O)C(c3ccc(F)cc3)C2)cc1 (centres undefined) | 61.7 | > 100 | 50.7 | 35.4 | 41.2 | 12.6 | 44.1 | 23.8 | 19.9 | 15.9 | 17.5 | 20.5 | 1.23 | 20 |  | 
18 | COC(=O)C(=O)C(C(=O)C(=O)Nc1ccc(C)cc1)c1nc2ccc(C(=O)c3ccccc3)cc2[nH]c1=O (centres undefined) |  | > 100 | > 100 | > 100 | > 100 | > 100 | > 100 |  |  |  |  |  |  |  |  | 
